Data as given in ChEMBL document CHEMBL1201862, “PubChem BioAssay data set” (2004).
Values belong to the molecule of their own block, whether it stands above or below them. The source made the active and inactive calls.

Key:
[1] = reduction of Shn3 3'UTR-driven luciferase in osteoblasts – cell-based, Clone20 osteoblasts, firefly luciferase, cherry-picked, dose response (AID 624132); assay type: functional;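 also: firefly luciferase luminescence from reporter carrying the Shn3 3'UTR in osteoblasts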
Beta-galactosidase = Beta-galactosidase (Escherichia coli, UniProt Q8VNN2); experiment: detection-enzyme interference by beta-gal modulators – biochemical, E. coli enzyme, set 3, artefact control for CCR6 antagonist project, dose response (AID 504712); assay type: functional
Sequence of Beta-galactosidase (Q8VNN2 whole entry): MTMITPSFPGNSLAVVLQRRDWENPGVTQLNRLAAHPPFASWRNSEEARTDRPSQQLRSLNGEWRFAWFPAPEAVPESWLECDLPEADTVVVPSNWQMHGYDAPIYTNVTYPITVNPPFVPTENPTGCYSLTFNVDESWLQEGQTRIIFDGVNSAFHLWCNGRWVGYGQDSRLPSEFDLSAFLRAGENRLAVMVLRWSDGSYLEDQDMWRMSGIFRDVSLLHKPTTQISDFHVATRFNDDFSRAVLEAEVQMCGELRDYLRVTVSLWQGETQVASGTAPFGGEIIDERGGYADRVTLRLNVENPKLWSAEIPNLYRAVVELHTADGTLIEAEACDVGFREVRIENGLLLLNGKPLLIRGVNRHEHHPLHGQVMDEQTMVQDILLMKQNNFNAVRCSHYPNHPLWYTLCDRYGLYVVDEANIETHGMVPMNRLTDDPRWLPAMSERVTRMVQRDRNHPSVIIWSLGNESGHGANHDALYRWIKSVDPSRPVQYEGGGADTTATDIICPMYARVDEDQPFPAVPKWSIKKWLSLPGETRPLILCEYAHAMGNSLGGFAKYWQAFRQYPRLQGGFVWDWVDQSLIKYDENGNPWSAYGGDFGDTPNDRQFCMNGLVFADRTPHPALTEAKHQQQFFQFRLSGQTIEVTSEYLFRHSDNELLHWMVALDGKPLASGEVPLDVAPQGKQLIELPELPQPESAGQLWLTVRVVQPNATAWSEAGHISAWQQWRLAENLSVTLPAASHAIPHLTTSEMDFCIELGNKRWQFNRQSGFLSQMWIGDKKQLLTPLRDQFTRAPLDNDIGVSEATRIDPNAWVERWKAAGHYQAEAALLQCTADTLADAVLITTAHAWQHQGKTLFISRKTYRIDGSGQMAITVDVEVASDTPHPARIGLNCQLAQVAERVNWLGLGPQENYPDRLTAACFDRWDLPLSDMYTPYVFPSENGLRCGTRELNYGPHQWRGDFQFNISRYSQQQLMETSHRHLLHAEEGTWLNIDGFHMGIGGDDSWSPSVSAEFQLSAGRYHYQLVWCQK

[2] = general cell-killing toxicity readout – plate reader, dry powder samples, cytotoxicity control for PAX8 inhibitor project, dose response (AID 743021); assay type: functional, cell-based
[3] = loss of viability in HepG2 cells – cell-based, CellTiter-Glo, cherry-picked, cytotoxicity control for Shn3 inhibitor project, dose response (AID 624134); assay type: functional
Paired box protein Pax-8 = Paired box protein Pax-8 (Homo sapiens, UniProt Q06710); experiment: PAX8 transcriptional activity inhibition in RMG-I – RMG-I cells, luciferase, cherry-pick, dose response (AID 687027); assay type: functional, cell-based;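 also: luciferase reporter driven by Pax8 target thyroperoxidase promoter measured by SteadyGlo luminescence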
Sequence of Paired box protein Pax-8 (Q06710 whole entry): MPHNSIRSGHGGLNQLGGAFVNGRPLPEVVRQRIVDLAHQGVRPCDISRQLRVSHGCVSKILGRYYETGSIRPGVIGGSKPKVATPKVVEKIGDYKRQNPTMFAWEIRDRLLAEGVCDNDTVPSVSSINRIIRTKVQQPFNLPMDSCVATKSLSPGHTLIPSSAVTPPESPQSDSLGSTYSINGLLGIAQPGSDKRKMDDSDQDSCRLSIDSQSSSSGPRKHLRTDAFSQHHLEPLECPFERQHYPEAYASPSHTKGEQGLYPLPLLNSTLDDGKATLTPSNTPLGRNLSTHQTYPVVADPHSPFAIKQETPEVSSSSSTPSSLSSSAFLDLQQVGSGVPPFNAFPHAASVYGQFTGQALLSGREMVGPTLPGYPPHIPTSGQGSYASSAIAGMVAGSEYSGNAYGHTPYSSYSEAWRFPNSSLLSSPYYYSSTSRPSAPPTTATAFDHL

[4] = biological target: Neurotensin receptor type 1 (Homo sapiens, UniProt P30989); assay type: functional;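 also: Image-based confirmatory dose-response assay measuring agonist activity at NTR1; NTR1-expressing U2OS osteosarcoma cells imaged for beta-arrestin GFP spot formation; agonist potency where compounds increase beta-arrestin recruitment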
Sequence of Neurotensin receptor type 1 (P30989 whole entry): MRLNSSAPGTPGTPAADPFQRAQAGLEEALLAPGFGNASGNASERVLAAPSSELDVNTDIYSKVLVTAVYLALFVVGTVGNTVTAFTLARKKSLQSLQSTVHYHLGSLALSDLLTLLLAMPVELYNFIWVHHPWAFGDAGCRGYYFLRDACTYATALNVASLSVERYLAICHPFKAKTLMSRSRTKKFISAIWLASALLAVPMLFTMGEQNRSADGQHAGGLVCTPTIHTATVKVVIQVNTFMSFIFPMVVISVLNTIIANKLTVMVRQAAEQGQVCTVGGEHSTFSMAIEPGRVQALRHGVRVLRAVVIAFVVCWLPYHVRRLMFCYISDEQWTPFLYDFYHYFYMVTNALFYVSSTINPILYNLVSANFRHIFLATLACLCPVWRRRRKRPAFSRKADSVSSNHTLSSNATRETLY

[5] = Luminescence Cell-Based Dose Retest to Confirm Inhibitors of Cancer Stem Cells. [Related pubchem assays (depositor defined):AID2717, AID2721]; assay type: functional; settings: Homo sapiens
[6] = biological target: Signal transducer and activator of transcription 3 (Homo sapiens, UniProt P40763); experiment: STAT3 activation with BCL3 mRNA and toxicity – cell-based, […], BCL3 qPCR, cytotoxicity, late-stage follow-up, panel member STAT3 Activation (AID 2049)
Sequence of Signal transducer and activator of transcription 3 (P40763 whole entry): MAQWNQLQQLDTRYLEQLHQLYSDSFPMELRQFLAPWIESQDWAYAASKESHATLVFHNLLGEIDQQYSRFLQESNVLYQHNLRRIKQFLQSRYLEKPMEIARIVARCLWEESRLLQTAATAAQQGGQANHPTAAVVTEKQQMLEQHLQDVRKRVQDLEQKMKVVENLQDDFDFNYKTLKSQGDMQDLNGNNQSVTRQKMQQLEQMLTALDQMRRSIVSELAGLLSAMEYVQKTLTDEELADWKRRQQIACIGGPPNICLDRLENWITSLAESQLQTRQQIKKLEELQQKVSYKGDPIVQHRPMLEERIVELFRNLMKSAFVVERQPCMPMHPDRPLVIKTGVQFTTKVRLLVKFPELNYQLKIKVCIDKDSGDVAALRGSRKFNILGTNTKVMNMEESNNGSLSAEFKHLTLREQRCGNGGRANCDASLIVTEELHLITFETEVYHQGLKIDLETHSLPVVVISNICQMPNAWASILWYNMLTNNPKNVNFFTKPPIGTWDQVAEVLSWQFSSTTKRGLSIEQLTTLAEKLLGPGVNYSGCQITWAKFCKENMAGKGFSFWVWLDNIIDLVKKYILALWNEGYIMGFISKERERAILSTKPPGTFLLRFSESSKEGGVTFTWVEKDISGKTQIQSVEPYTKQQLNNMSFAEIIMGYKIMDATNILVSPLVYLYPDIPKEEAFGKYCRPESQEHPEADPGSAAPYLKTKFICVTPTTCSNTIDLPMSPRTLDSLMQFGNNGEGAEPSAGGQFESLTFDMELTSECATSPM

Protein Tat = biological target: T1, Protein Tat (Human immunodeficiency virus type 1 group M subtype B (isolate HXB2)(HIV-1), UniProt P04608); assay type: functional;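 also: tat binding to TAR RNA read out by fluorescence polarization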
T1 sequence (P04608 whole entry): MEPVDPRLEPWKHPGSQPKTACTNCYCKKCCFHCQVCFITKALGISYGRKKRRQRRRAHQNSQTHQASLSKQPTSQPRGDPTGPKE

ORF 73 = ORF 73 (Human herpesvirus 8, UniProt O40947); experiment: KSHV LANA DNA-binding disruption – biochemical, fluorescence polarization, cherry-picked samples, dose response (AID 504725); set-up: species or system Human gammaherpesvirus 8;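 also: fluorescence polarization of a labeled DNA duplex reporting LANA DNA binding; potency is for inhibitors that block LANA binding to the DNA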
Sequence of ORF 73 (O40947 whole entry): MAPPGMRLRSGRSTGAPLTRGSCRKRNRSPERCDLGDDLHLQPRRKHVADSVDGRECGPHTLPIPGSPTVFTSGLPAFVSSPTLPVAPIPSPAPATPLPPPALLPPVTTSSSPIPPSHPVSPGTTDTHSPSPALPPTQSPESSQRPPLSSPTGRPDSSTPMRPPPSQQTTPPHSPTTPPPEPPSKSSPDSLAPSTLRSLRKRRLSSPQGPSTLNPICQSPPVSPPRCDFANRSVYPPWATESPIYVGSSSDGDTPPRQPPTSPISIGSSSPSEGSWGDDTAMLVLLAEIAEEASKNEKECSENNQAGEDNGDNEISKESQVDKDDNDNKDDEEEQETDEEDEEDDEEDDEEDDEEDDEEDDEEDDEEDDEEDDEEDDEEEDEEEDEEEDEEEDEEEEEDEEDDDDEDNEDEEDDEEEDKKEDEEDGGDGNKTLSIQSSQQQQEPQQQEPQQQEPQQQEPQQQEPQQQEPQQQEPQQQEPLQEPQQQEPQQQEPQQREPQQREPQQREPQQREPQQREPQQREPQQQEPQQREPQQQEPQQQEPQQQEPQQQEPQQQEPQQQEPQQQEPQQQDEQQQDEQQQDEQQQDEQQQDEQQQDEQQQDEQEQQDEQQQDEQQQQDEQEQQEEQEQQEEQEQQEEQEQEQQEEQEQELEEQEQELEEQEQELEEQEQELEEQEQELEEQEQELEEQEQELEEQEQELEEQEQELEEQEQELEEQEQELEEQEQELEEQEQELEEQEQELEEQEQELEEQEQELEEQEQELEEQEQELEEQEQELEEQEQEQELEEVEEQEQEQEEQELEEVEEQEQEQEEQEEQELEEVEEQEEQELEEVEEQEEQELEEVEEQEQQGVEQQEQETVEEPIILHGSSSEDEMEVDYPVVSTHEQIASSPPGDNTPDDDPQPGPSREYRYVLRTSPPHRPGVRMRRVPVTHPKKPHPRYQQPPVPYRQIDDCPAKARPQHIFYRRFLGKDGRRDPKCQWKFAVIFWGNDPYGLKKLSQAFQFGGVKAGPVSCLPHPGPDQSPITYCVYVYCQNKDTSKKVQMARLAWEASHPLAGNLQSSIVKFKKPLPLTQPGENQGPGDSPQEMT

Keap1/Nrf2 = Keap1/Nrf2 (Homo sapiens, UniProt Q14145); experiment: disruptors of Keap1 binding to Nrf2 peptide – biochemical, fluorescence polarization, cherry-picked samples, dose response (AID 588683)
Sequence of Keap1/Nrf2 (Q16236 whole entry): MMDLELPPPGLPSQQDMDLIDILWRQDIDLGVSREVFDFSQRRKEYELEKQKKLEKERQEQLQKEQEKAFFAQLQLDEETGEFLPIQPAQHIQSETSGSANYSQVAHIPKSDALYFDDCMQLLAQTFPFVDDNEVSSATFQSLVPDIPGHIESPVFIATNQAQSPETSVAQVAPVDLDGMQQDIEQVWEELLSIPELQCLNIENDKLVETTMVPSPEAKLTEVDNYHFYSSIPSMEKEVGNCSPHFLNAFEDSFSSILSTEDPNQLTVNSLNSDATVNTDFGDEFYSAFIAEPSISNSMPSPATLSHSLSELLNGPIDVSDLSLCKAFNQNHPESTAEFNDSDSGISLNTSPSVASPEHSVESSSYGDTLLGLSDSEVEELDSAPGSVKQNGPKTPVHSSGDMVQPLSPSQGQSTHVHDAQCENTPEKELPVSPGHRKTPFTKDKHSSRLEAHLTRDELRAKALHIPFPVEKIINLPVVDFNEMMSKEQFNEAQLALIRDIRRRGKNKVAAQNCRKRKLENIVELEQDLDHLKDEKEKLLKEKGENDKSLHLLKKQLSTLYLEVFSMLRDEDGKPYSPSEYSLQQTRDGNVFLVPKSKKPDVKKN
Sequence of Keap1/Nrf2 (Q14145 whole entry): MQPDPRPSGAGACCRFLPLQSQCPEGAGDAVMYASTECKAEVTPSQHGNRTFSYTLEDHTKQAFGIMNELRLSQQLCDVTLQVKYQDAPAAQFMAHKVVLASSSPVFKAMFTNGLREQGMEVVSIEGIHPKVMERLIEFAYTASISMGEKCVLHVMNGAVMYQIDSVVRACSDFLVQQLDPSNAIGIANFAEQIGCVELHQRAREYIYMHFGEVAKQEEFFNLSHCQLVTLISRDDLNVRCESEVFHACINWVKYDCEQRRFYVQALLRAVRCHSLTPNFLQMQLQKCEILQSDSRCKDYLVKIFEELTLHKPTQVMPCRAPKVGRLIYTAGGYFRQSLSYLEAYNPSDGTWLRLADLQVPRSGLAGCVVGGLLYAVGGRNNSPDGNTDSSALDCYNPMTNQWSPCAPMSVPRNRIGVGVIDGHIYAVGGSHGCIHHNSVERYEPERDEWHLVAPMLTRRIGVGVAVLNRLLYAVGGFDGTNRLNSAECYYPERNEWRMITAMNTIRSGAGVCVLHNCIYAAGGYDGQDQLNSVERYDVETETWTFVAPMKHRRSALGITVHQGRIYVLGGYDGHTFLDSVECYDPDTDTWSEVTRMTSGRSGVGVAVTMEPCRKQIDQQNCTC

[7] = biological target: T2, Rac GTPase-activating protein 1 (Homo sapiens, UniProt Q9H0H5); experiment: blockers of MgcRacGAP-driven Rac1 GTP hydrolysis – biochemical, ADP Hunter fluorescence, primary and confirmatory, confirmation (AID 624330); assay type: functional
T2 sequence (Q9H0H5 whole entry): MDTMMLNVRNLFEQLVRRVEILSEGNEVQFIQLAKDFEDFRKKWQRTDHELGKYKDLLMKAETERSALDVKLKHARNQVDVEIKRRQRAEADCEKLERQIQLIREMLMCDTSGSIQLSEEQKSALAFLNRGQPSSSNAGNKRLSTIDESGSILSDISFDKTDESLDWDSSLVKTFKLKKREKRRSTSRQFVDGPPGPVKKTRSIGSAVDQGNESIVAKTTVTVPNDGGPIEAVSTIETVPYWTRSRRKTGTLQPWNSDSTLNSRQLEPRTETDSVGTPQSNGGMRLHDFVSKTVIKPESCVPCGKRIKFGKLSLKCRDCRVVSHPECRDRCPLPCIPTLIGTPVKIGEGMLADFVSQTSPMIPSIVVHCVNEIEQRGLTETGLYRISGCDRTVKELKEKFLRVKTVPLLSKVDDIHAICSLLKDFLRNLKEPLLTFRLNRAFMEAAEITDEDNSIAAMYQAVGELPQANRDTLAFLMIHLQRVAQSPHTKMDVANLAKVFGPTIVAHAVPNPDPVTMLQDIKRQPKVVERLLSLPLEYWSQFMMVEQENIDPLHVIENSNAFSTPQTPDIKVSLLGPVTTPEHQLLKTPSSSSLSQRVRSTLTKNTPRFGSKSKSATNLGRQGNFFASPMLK

[8] = biological target: Dual specificity protein phosphatase 3 (Homo sapiens, UniProt P51452); experiment: inhibition constants for human DUSP3 – biochemical, colorimetric, SAR follow-up (AID 2004)

SMILES: O=C(OCc1ccccc1)N(CCCCN(CCCNCc1ccccc1)C(=O)OCc1ccccc1)CCCNCc1ccccc1
AC50 [1]: 5.36 µM (active)
IC50 (Beta-galactosidase): > 66.6 µM (inactive)
AC50 [2]: 10.3 µM (active)
AC50 [3]: 4.16 µM (active)
AC50 (Paired box protein Pax-8): 9.11 µM (active)

SMILES: CC1=C(C(=O)OC2CCCCCCC2)C(c2cc3c(cc2Br)OCO3)CC(=O)N1 (stereo not drawn)
EC50 [4]: 18.2 µM (active)
AC50 [5]: 3.59 µM (active)

SMILES: CN(C(=O)c1cc(C2CC2)on1)c1ccccc1
EC50 [6]: > 55.7 µM (inactive)

IC50 (Protein Tat): 6.32 µM (inconclusive)
AC50 (ORF 73): 10 µM (active)
AC50 (Keap1/Nrf2): 12.3 µM (active)
IC50 [7]: 35 µM (active)
SMILES: Cc1nc2ccccc2n2c(O)c(CC(=O)O)cc12

SMILES: Cc1cc(/C=C2/SC(=S)NC2=O)c(C)n1-c1cccc(Cl)c1
Ki [8]: 82 µM (inactive)
